Here are results for four substances from patent US20230192785A1, “JNK3 INHIBITORY PEPTIDES” (UNIVERSITA' DEGLI STUDI DI MILANO, priority 2020, published 2023).

One series relates to mouse cortical neurons. Put plainly: MTT toxicity assay on cortical neurons under control conditions. Type of series: cell-based. The settings on record: 24 hours, 3 doses tested, FIG. 4A. The method, then:
FIG. 4: A) Toxicity at the indicated concentrations of SIMBA2 was evaluated by MTT assay and it is expressed in % survival. Data are expressed as mean ± SEM of 3 independent experiments (n = 6). ANOVA one-way, Dunnett post hoc test. B) Western blot of cortical neurons under control conditions and relative quantification showing that SIMBA2 (0.25-0.5 µM) prevents the phosphorylation of APP at the T668 position in a dose-dependent manner. Data are expressed as mean ± SEM of 3 independent experiments (n = 6). ANOVA one-way, Dunnett’s post-hoc test, ** p <0.01. C) Western blot and related quantification showing that SIMBA2 (0.25-0.5 µM) reduces P-c-Jun phosphorylation in neurons. Data are expressed as mean ± SEM of 3 independent experiments (n = 6). […]
FIG. 10: A) Toxicity at the indicated concentrations of SIMBA2, evaluated by MTT assay and expressed as fold of change with respect to tcontrol. Data are expressed as mean ± SEM of 3 independent experiments (n = 6). […] B) Western blot of cortical neurons under control conditions in the absence (Ctr) or in the presence of SIMBA2 1 µM (1) and relative quantification showing that SIMBA2 (1 µM) at 24 h prevents the phosphorylation of P-c-Jun and reduces the phosphorylation of the APP at position T668 and C) the activity is maintained at 3 days and D) at 6 days after treatment. Data are expressed as mean ± SEM of 2 independent experiments (n = 5). […]
In general terms: Formazan colour is commonly taken as a measure of viable cells.

Series [1] can be described thus: Toxicity after single injection: body weight and side effects in mice. It is filed as in vivo, mouse. The method, then:
FIG. 9: A) Measurement of body weight in mice before treatment. Data are expressed as mean body weight (g) ± SEM. B) Weight gain or loss was analyzed as the difference between the weight at the end and before the treatment. Data are expressed as mean ± SEM.
Therefore, SIMBA2 at the highest dose was able to prevent synaptopathy in vivo.
The toxicity of SIMBA2 after a single injection was evaluated. As an index of the general health of the animals, the change in the body weight of the mice was evaluated. […] 1 month after the I.P. injection, the body weight was measured again.

Another series has as its target JNK3 (Homo sapiens, UniProt P53779). Put plainly: Alpha Screen Kinase Assay, cell-free JNK3 activity. Type of series: biochemical. To be noted: cell-free AlphaScreen, FIG. 3B. How it is done: FIG. 3: A) Cell-free assay of JNK1 activity in the presence of peptides according to the invention.
To evaluate the specificity of the four peptides described above for JNK3, the Alpha Screen Kinase Assay was performed, following the experimental method described for the cell-free assays. Briefly, this AlphaScreen assay is used to measure the ability of the JNK kinase to phosphorylate its targets. The kinase reaction was performed under the following buffer conditions of the assay: 20 mM Tris / HCl (pH 7.4), 10 mM MgCl2, 1 mM DTT, 100 µM Na3VO4 and 0.01% Tween-20. Compounds (final concentration 5 µg / mL, 1% DMSO) or the control vehicle (final concentration 1% DMSO) were diluted in the assay buffer and mixed with JNK kinase (final concentration 5 nM). After an incubation time of 15 minutes at room temperature, biotinylated substrate, 6 nM final and ATP, 1 µM final diluted in assay buffer were added, followed by incubation of the dishes for 2 hours at room temperature. After this incubation period, the streptavidin donor and acceptor beads coated with anti-phosphosubstrate protein A antibody were added, with a final concentration of each component of 20 µg / mL, diluted in the following buffer: 20 mM Tris / HCl (pH 7.4), 200 mM NaCl, 80 mM ethylenediamine tetraacetic acid (EDTA) and 0.3% bovine serum albumin (BSA). After an overnight incubation, the dosage was measured using the AlphaQuest reader.
The ATP-competitive and non-selective inhibitor SP600125 was used as a positive control for the different isoforms of JNK.
Background: Alpha assays give light when donor and acceptor beads are brought close together.

Ends that are not written are not given here.

Chain of JNK3 (P53779 whole entry, species assumed): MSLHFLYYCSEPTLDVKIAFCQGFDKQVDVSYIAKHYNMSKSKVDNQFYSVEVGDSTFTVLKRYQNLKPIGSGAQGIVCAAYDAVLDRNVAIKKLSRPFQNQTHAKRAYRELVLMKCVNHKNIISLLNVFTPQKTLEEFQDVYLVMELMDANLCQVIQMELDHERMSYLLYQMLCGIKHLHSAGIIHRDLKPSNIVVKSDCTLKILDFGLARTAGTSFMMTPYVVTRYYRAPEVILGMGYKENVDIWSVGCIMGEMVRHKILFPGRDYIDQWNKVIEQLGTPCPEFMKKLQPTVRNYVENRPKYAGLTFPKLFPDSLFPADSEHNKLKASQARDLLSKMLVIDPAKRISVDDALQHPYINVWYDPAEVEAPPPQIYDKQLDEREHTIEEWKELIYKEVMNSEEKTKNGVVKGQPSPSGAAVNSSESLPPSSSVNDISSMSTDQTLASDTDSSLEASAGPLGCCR

With “SDRSLHLEANEKGENVNVHVTKTRADKSKIKVSVRQYADINEKGEAQYKCPVAQLE [SIMBA2]”, in the series on mouse cortical neurons, the “toxicity (MTT, % survival)” value was “no toxicity”. In series [1] (1 month after single I.P. injection, FIG. 9B), the “change in body weight” value is “did not show changes in body weight”. Further, in series [1] (TgCRND8 mice, 22 mg/kg), the “side effects in vivo” value is listed as “did not lead to the onset of any noticeable side effects”.

On to “SIMBA2 long A: peptide SDRSLHLEANEKGENVNVHVTKTNEKGEKIKVSVRQYADINEKGEAQYKCPVAQLE (Designed peptide based on size and structure to act in the interaction among beta-arrestin-2 and JNK3)”, for which the “inhibition of JNK3 activity on p-c-Jun” value with JNK3 was “inhibit the activity of JNK3 on p-c-Jun in a concentration-dependent manner”. On the same count and under the same terms, under “SIMBA2 short A: peptide SDRSLHLEAEKGNVNVHVTKTEKGKIKVSVRQYADIEKGAQYKCPVAQLE (Designed peptide based on size and structure to act in the interaction among beta-arrestin-2 and JNK3)” stands “inhibit the activity of JNK3 on p-c-Jun in a concentration-dependent manner”; under “SIMBA2 short B: peptide SDRSLHLEAEKGNVNVHVTKTADKKIKVSVRQYADIEKGAQYKCPVAQLE (Designed peptide based on size and structure to act in the interaction among beta-arrestin-2 and JNK3)”, “inhibit the activity of JNK3 on p-c-Jun in a concentration-dependent manner”.
